Reference: US4994485A, “Thio compounds having fungicidal activity” (Duphar International Research B.V., priority 1986, dated 1991)

Assays:
Assay type in all cases: cell-based
[1] = system: Fusarium culmorum; experiment: In vitro test on activity against Fusarium culmorum; conditions: read-out: growth inhibition of the fungus
[2] = system: Leptosphaeria nodorum; experiment: In vitro test on activity against Leptosphaeria nodorum; conditions: Parastagonospora nodorum, read-out: growth inhibition of the fungus
Experimental: The compound to be tested is processed in a culture medium consisting of 1% by weight of glucose, 0.2% by weight of a yeast extract (marmite), 0.5% by weight of a protein (pepton), 2.5% by weight of agar-agar, and 95.8% by weight of water, in petri dishes in concentrations of 3 and 10 ppm. The petri dishes are inoculated with the plant-pathogenic fungus Pyrenophora graminea and then kept at a temperature of 20° C. After 48 hours the growth-inhibiting activity of the compounds is determined visually. For comparison, the known substance (b) (see EXAMPLE XV) is also tested.
Compounds according to the invention are tested on i Leptosphaeria nodorum in the same manner as described in EXAMPLE XIX.

[3] = system: Pythium splendens; experiment: In vitro test on activity against Pythium splendens; conditions: Globisporangium splendens, read-out: growth inhibition of the fungus

With `CCCC[S+]([O-])c1sc(C(C)=O)c(N)c1C#N` (centres unmarked) [(58), 2-n-butylsulphinyl-3 cyano-4-amino-5-acetylthiophene] the inhibition at 30 ppm [1] was at least 75%, the inhibition at 30 ppm [2] was at least 85% and the inhibition at 10 ppm [3] was at least 95%.

Work on `CC[S+]([O-])c1sc(C(C)=O)c(OC)c1C#N` (centres unmarked) [(23), 2-ethylsulphinyl-3-cyano-4-methoxy-5-acetylthiophene] yielded an inhibition at 30 ppm [1] of at least 75% and an inhibition at 30 ppm [2] of at least 85%.

Work on `CC[S+]([O-])c1sc(C=O)c(Cl)c1C=O` (centres unmarked) [(83), 2-ethylsulphinyl-3,5-diformyl-4-chlorothiophene] yielded an inhibition at 10 ppm [3] of at least 95%.

`CCC[S+]([O-])c1sc(C(C)=O)c(C)c1C#N` (centres unmarked) [(62), 2-n-propylsulphinyl-3-cyano-4-methyl-5-acetylthiophene] gave an inhibition at 30 ppm [1] of at least 75%.

In the case of `CC[S+]([O-])c1sc(S(C)(=O)=O)c(Cl)c1C#N` (centres unmarked) [(77), 2-ethylsulphinyl-3-cyano-4-chloro-5-methylsulphonyl-thiophene], the inhibition at 10 ppm [3] is reported as at least 95%.

Compound `CCS(=O)(=O)c1sc(C#N)cc1C#N` [(16), 2-ethylsulphonyl-3,5-dicyanothiophene] has an inhibition at 10 ppm [3] of at least 95%.

In the case of `CCS(=O)(=O)c1sc(C(C)=O)cc1C#N` [(21), 2-ethylsulphonyl-3-cyano-5-acetylthiophene], the inhibition at 10 ppm [3] is reported as at least 95%.

`CC[S+]([O-])c1sc(C#N)c(-c2ccccc2)c1C#N` (centres unmarked) [(71), 2-ethylsulphinyl-3,5-dicyano-4-phenylthiophene] showed an inhibition at 30 ppm [1] of at least 75% and an inhibition at 30 ppm [2] of at least 85%.

`CC[S+]([O-])c1sc(C(=O)c2ccc(Cl)cc2)c(OC)c1C#N` (centres unmarked) [(76), 2-ethylsulphinyl-3-cyano-4-methoxy-5-(4-chlorobenzoyl)thiophene] was tested, and the inhibition at 30 ppm [2] was at least 85%.

In the case of `CC[S+]([O-])c1sc(C=O)c(C)c1C#N` (centres unmarked) [(56), 2-ethylsulphinyl-3-cyano-4-methyl-5-formylthiophene], the inhibition at 10 ppm [3] is reported as at least 95%.

Work on `C[S+]([O-])c1sc2cccc(Cl)c2c1C#N` (centres unmarked) [(11), 2-methylsulphinyl-3-cyano-4-chloro-benzothiophene] yielded an inhibition at 30 ppm [1] of at least 75%.

Work on `CCCCCC[S+]([O-])c1sc(C#N)c(N)c1C#N` (centres unmarked) [(38), 2-n-hexylsulphinyl-3,5-dicyano-4-aminothiophene] yielded an inhibition at 30 ppm [1] of at least 75%.

`CC(=O)COc1c(C(C)=O)sc([S+](C)[O-])c1C#N` (centres unmarked) [(59), 2-methylsulphinyl-3-cyano-4-acetylmethoxy-5-acetylthiophene] showed an inhibition at 10 ppm [3] of at least 95%.

`CC[S+]([O-])c1sc(C#N)c(N)c1C#N` (centres unmarked) [(46), 2-ethylsulphinyl-3,5-dicyano-4-aminothiophene] showed an inhibition at 10 ppm [3] of at least 95%.

`COc1c(C(=O)c2ccccc2)sc([S+](C)[O-])c1C#N` (centres unmarked) [(74), 2-methylsulphinyl-3-cyano-4-methoxy-5-benzoylthiophene] gave an inhibition at 30 ppm [1] of at least 75%, an inhibition at 30 ppm [2] of at least 85% and an inhibition at 10 ppm [3] of at least 95%.

With `CCC[S+]([O-])c1sc(C(=O)c2ccccc2)c(OC)c1C#N` (centres unmarked) [(75), 2-n-propylsulphinyl-3-cyano-4-methoxy-5-benzoylthiophene] the inhibition at 30 ppm [1] was at least 75% and the inhibition at 30 ppm [2] was at least 85%.

For `CC[S+]([O-])c1sc(C=O)c(Cl)c1C#N` (centres unmarked) [(50), 2-ethylsulphinyl-3-cyano-4-chloro-5-formylthiophene], the inhibition at 10 ppm [3] was at least 95%.

Compound `C[S+]([O-])c1sc(S(C)(=O)=O)cc1C#N` (centres unmarked) [(60), 2-methylsulphinyl-3-cyano-5-methylsulphonylthiophene] has an inhibition at 10 ppm [3] of at least 95%.

In the case of `CCC[S+]([O-])c1sc(C(C)=O)c(N)c1C#N` (centres unmarked) [(57), 2-n-propylsulphinyl-3-cyano-4-amino-5-acetylthiophene], the inhibition at 30 ppm [1] is reported as at least 75% and the inhibition at 10 ppm [3] is reported as at least 95%.

`CC[S+]([O-])c1sc(C(=O)c2ccccc2)cc1C#N` (centres unmarked) [(64), 2-ethylsulphinyl-3-cyano-5-benzoylthiophene] showed an inhibition at 30 ppm [1] of at least 75% and an inhibition at 30 ppm [2] of at least 85%.

For `CCOC(=O)c1sc([S+]([O-])CC)c(C#N)c1Cl` (centres unmarked) [(37), 2-ethylsulphinyl 3-cyano-4-chloro-5-ethoxycarbonylthiophene], the inhibition at 30 ppm [1] was at least 75% and the inhibition at 30 ppm [2] was at least 85%.

`CCC[S+]([O-])c1sc(C#N)cc1C#N` (centres unmarked) [(40), 2-n-propylsulphinyl 3,5-dicyanothiophene] was tested, and the inhibition at 30 ppm [1] was at least 75%, the inhibition at 30 ppm [2] was at least 85% and the inhibition at 10 ppm [3] was at least 95%.

Compound `CCCC[S+]([O-])c1sc(C(=O)c2ccccc2)cc1C#N` (centres unmarked) [(90), 2-n-butylsulphinyl 3-cyano-5-benzoylthiophene] has an inhibition at 30 ppm [1] of at least 75%.

In the case of `CCS(=O)(=O)c1sc(C#N)c(Cl)c1C#N` [(22), 2-ethylsulphonyl-3,5 dicyano-4-chlorothiophene], the inhibition at 30 ppm [1] is reported as at least 75% and the inhibition at 10 ppm [3] is reported as at least 95%.

`CC[S+]([O-])c1sc(C=O)c(N)c1C#N` (centres unmarked) [(49), 2-ethylsulphinyl-3-cyano-4-amino-5-formylthiophene] showed an inhibition at 10 ppm [3] of at least 95%.

In the case of `CCCC[S+]([O-])c1sc(C(=O)c2ccccc2)c(N)c1C#N` (centres unmarked) [(88), 2-n-butylsulphinyl-3-cyano-4-amino-5-benzoylthiophene], the inhibition at 30 ppm [1] is reported as at least 75% and the inhibition at 30 ppm [2] is reported as at least 85%.

`C[S+]([O-])c1sc(C=O)c(N)c1C#N` (centres unmarked) [(48), 2-methylsulphinyl-3-cyano-4-amino-5-formylthiophene] gave an inhibition at 10 ppm [3] of at least 95%.

For `CCC[S+]([O-])c1sc(C(C)=O)c(Cl)c1C#N` (centres unmarked) [(61), 2-n-propylsulphinyl-3-cyano-4-cloro-5-acetylthiophene], the inhibition at 30 ppm [1] was at least 75% and the inhibition at 10 ppm [3] was at least 95%.

Work on `CC[S+]([O-])c1sc(C(C)=O)c(-c2ccccc2)c1C#N` (centres unmarked) [(87), 2-ethylsulphinyl-3-cyano-4-phenyl-5-acetylthiophene] yielded an inhibition at 30 ppm [1] of at least 75% and an inhibition at 30 ppm [2] of at least 85%.

For `COc1c(C(C)=O)sc([S+](C)[O-])c1C#N` (centres unmarked) [(25), 2-methylsulphinyl-3-cyano-4-methoxy-5-acetylthiophene], the inhibition at 10 ppm [3] was at least 95%.

`CS/C(=C(\C#N)c1ccccc1)[S+](C)[O-]` (stereo not drawn) [(93), α-cyano-β-methylsulphinyl)-β-methylthio-styrene, E-isomer] gave an inhibition at 30 ppm [1] of at least 75% and an inhibition at 10 ppm [3] of at least 95%.

`C[S+]([O-])c1sc(C(=O)c2ccccc2)cc1C#N` (centres unmarked) [(30)] gave an inhibition at 10 ppm [3] of at least 95%.

Work on `CCCC[S+]([O-])c1sc(C(C)=O)cc1C#N` (centres unmarked) [(44), 2-n-butylsulphinyl-3-cyano-5-acetylthiophene] yielded an inhibition at 30 ppm [1] of at least 75% and an inhibition at 30 ppm [2] of at least 85%.

`CC[S+]([O-])c1sc(C(C)=O)c(NC)c1C#N` (centres unmarked) [(17), 2-ethylsulphinyl-3-cyano-4-N-methylamino-5-acetylthiophene] gave an inhibition at 30 ppm [2] of at least 85% and an inhibition at 10 ppm [3] of at least 95%.

`CC[S+]([O-])c1sc(C(=O)c2ccccc2)c(C)c1C#N` (centres unmarked) [(91), 2-ethylsulphinyl-3-cyano-4-methyl-5-benzoylthiophene] showed an inhibition at 30 ppm [1] of at least 75%.

Compound `CC[S+]([O-])c1sc(C#N)c(-n2cncn2)c1C#N` (centres unmarked) [(68), 2-ethylsulphinyl-3,5-dicyano-4-(1,2,4-triazol-1-yl)thiophene] has an inhibition at 10 ppm [3] of at least 95%.

`C[S+]([O-])c1sc(C=O)cc1C#N` (centres unmarked) [(28), 2-methylsulphinyl-3-cyano-5-formylthiophene] was tested, and the inhibition at 10 ppm [3] was at least 95%.

`CCC[S+]([O-])c1sc(C#N)c(OC)c1C#N` (centres unmarked) [(55), 2-n-propylsulphinyl-3,5-dicyano-4-methoxythiophene] was tested, and the inhibition at 30 ppm [1] was at least 75% and the inhibition at 10 ppm [3] was at least 95%.

With `CC[S+]([O-])c1sc(C#N)c(N(C)C(C)=O)c1C#N` (centres unmarked) [(54), 2-ethylsulphinyl-3,5-dicyano-4-(N-acetyl-N-methylamino)thiophene] the inhibition at 10 ppm [3] was at least 95%.

Work on `CCCCCCCC[S+]([O-])c1sc(C#N)cc1C#N` (centres unmarked) [(81), 2-n-octylsulphinyl-3,5-dicyanothiophene] yielded an inhibition at 30 ppm [1] of at least 75%.

Work on `CC[S+]([O-])c1sc(C(=O)c2ccccc2)c(N)c1C#N` (centres unmarked) [(65), 2-ethylsulphinyl-3-cyano-4-amino-5-benzoylthiophene] yielded an inhibition at 30 ppm [1] of at least 75% and an inhibition at 30 ppm [2] of at least 85%.

For `CCS(=O)(=O)c1sc(S(C)(=O)=O)c(Cl)c1C#N` [(84), 2-ethylsulphonyl-3-cyano-4-chloro-5-methylsulphonylthiophene], the inhibition at 10 ppm [3] was at least 95%.

`CCC[S+]([O-])c1sc(C(=O)c2ccc(Cl)cc2)cc1C#N` (centres unmarked) [(73), 2-n-propylsulphinyl-3-cyano-5-(4-chlorobenzolyl)thiophene] showed an inhibition at 30 ppm [1] of at least 75% and an inhibition at 30 ppm [2] of at least 85%.

Compound `CC[S+]([O-])c1sc2cc(Cl)ccc2c1C#N` (centres unmarked) [(20), 2-ethylsulphinyl-3-cyano 6-chloro-benzothiophene] has an inhibition at 30 ppm [2] of at least 85%.

`CC[S+]([O-])c1sc(C#N)c(C)c1C#N` (centres unmarked) [(63), 2-ethylsulphinyl-3,5-dicyano-4-methylthiophene] was tested, and the inhibition at 30 ppm [2] was at least 85%.

`CC[S+]([O-])c1sc(C(=O)c2ccccc2)c(Cl)c1C#N` (centres unmarked) [(92), 2-ethylsulphinyl-3-cyano-4-chloro-5-benzoylthiophene] showed an inhibition at 30 ppm [1] of at least 75% and an inhibition at 30 ppm [2] of at least 85%.

Work on `CC[S+]([O-])c1sc(C#N)c(-n2ccnc2)c1C#N` (centres unmarked) [(69), 2-ethylsulphinyl-3,5-dicyano-4-(imidazol-1-yl)thiophene] yielded an inhibition at 10 ppm [3] of at least 95%.

Compound `CCOC(=O)c1sc([S+](C)[O-])c(C#N)c1N` (centres unmarked) [(29), 2-methylsulphinyl-3-cyano-4-amino-5-ethoxycarbonylthiophene] has an inhibition at 30 ppm [1] of at least 75%.

`CCS(=O)(=O)c1sc(C(C)=O)c(Cl)c1C#N` [(18), 2-ethylsulphonyl-3-cyano-4-chloro-5-acetylthiophene] gave an inhibition at 10 ppm [3] of at least 95%.

`C[S+]([O-])c1sc(C=O)cc1C=O` (centres unmarked) [(70), 2-methylsulphinyl-3,5-diformylthiophene] showed an inhibition at 10 ppm [3] of at least 95%.

`C[S+]([O-])c1sc(C=O)c(-c2ccc(Cl)cc2)c1C#N` (centres unmarked) [(26), 2-methylsulphinyl-3-cyano-4-(4-chlorophenyl)-5-formylthiophene] was tested, and the inhibition at 10 ppm [3] was at least 95%.
